This is an account of results in patent US20250195530A1, “POLQ INHIBITORS” (ASTRAZENECA AB, priority 2022, published 2025).

Where two headings read alike, the source gives them in different places. Bounds are passed on as bounds.

This assay concerns DLD-1 BRCA2−/− cells. Briefly: Homologous recombination synthetic lethal inhibition of proliferation, DLD-1 BRCA2-/- (Cell Titre Glo 3D). Format: cell-based. Conditions: for IC50: Homo sapiens. The essentials:
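Luminescent Cell Titre Glo 3D readout, taken on day 12 for homologous-recombination-deficient DLD-1 BRCA2−/− and day 7 for the wild-type control, after compound refresh on day 6. Compounds spanned 10 μM to 0.51 nM in three-fold steps; IC50 defined as 50% reduction of average maximum signal.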

The mark [1] stands for this setting: DLD-1, proliferation, luminescence, taken as DLD-1 BRCA2-/-, read-out: POLQ PD Prolif Lumin (converted).
Where [2] appears, read: DLD-1, first proliferation column (c5), taken as DLD-1 BRCA2-/-, read-out: POLQ PD Prolif Lumin (converted).
Setting [3] is: DLD-1, DLD-1 BRCA2 −/− cells, mean, read-out: POLQ PD Prolif Lumin BRCA2 −/− mean pIC50 (converted).
Setting [4] is: DLD-1, DLD-1 BRCA2 −/−, mean, read-out: POLQ PD Prolif Lumin BRCA2 −/− mean pIC50 (converted).
The mark [5] stands for this setting: DLD-1, first proliferation column (c5), DLD-1 BRCA2-/-, read-out: POLQ PD Prolif Lumin (converted).
[6] abbreviates: DLD-1, DLD-1 BRCA2-/- proliferation, column head only partly shown, read-out: POLQ PD Prolif Lumin (converted).

Regarding `Cc1ccnc(Cn2c(-c3ccc(OCC(=O)N(C)C4COC4)cc3Cl)nc3c(OC4(C)CC4)ncnc32)c1` [Example T480, 2-(3-chloro-4-(6-(1-methylcyclopropoxy)-9-((4-methylpyridin-2-yl)methyl)-9H-purin-8-yl)phenoxy)-N-methyl-N-(oxetan-3-yl)acetamide], the IC50 under setting [1] is 501 nM.
On to `Cc1ccnc(Cn2c(-c3ccc(OCC(=O)NC[C@H](C)O)cc3Cl)nc3c(OC4(C)CC4)ncnc32)c1` [Example T372, (S)-2-(3-chloro-4-(6-(1-methylcyclopropoxy)-9-((4-methylpyridin-2-yl)methyl)-9H-purin-8-yl)phenoxy)-N-(2-hydroxypropyl)acetamide], for which the IC50 under setting [2] was 398 nM.
Turning to `CO[C@H]1CCN(C(=O)c2ccc(-c3nc4c(OC5(C)CC5)ncnc4n3Cc3cc(C)ccn3)c(Cl)c2)C1` [Example T465, (S)-(3-chloro-4-(6-(1-methylcyclopropoxy)-9-((4-methylpyridin-2-yl)methyl)-9H-purin-8-yl)phenyl)(3-methoxypyrrolidin-1-yl)methanone], the IC50 under setting [1] is 631 nM.
On to `Cc1ccnc(Cn2c(-c3ccc(OCC(=O)NC4(C)COC4)cc3Cl)nc3c(OC4(C)CC4)ncnc32)c1` [Example T476, 2-(3-chloro-4-(6-(1-methylcyclopropoxy)-9-((4-methylpyridin-2-yl)methyl)-9H-purin-8-yl)phenoxy)-N-(3-methyloxetan-3-yl)acetamide], for which the IC50 under setting [1] was 251 nM.
As to `CC1(Oc2ncnc3c2nc(-c2ccc(CC(N)=O)cc2Cl)n3Cc2cccc(C#N)c2)CC1` [Example T81, 2-(3-chloro-4-(9-(3-cyanobenzyl)-6-(1-methylcyclopropoxy)-9H-purin-8-yl)phenyl)acetamide], under setting [3], the IC50 was 200 nM.
Still for that read-out and setting: with `CC1(Oc2ncnc3c2nc(-c2ccc(OCCCO)cc2Cl)n3Cc2cc(C(F)(F)F)ccn2)CC1` [Example T94, 3-(3-chloro-4-(6-(1-methylcyclopropoxy)-9-((4-(trifluoromethyl)pyridin-2-yl)methyl)-9H-purin-8-yl)phenoxy)propan-1-ol] the figure was 200 nM.
For the compound `CC(CCOc1ccc(-c2nc3c(OC4(C)CC4)ncnc3n2Cc2cc(C#N)ccc2F)c(Cl)c1)C(=O)O` (racemic) [Example U18, 4-(3-chloro-4-(9-(5-cyano-2-fluorobenzyl)-6-(1-methylcyclopropoxy)-9H-purin-8-yl)phenoxy)-2-methylbutanoic acid], the IC50 under setting [4] was 398 nM.
Take `Cc1ccnc(Cn2c(-c3ccc(OCC(=O)N(C)[C@H]4C[C@@H](O)C4)cc3Cl)nc3c(OC4(C)CC4)ncnc32)c1` [Example T582, 2-(3-chloro-4-(6-(1-methylcyclopropoxy)-9-((4-methylpyridin-2-yl)methyl)-9H-purin-8-yl)phenoxy)-N-((1s,3s)-3-hydroxycyclobutyl)-N-methylacetamide]: the “POLQ PD Prolif Lumin” value (DLD-1 BRCA2-/-) turned out to be 6.2.
`Cc1ccnc(Cn2c(-c3ccc(OCC(=O)NC(C)(C)CO)cc3Cl)nc3c(OC4(C)CC4)ncnc32)c1` [Example T519, 2-(3-chloro-4-(6-(1-methylcyclopropoxy)-9-((4-methylpyridin-2-yl)methyl)-9H-purin-8-yl)phenoxy)-N-(1-hydroxy-2-methylpropan-2-yl)acetamide]: the IC50 under setting [5] is 316 nM.
As for `CC1(Oc2ncnc3c2nc(-c2ccc(OCCC(=O)O)cc2Cl)n3Cc2ccccc2Cl)CC1` [Example T88, 3-(3-chloro-4-(9-(2-chlorobenzyl)-6-(1-methylcyclopropoxy)-9H-purin-8-yl)phenoxy)propanoic acid], the IC50 under setting [3] was 794 nM.
`CC1(Oc2ncnc3c2nc(-c2cccc(O[C@H]4C[C@H](C(=O)O)C4)c2Cl)n3Cc2cccc(Cl)c2)CC1` [Example T256, (1r,3r)-3-(2-chloro-3-(9-(3-chlorobenzyl)-6-(1-methylcyclopropoxy)-9H-purin-8-yl)phenoxy)cyclobutane-1-carboxylic acid]: for the setting “DLD-1 BRCA2-/- proliferation, column head only partly shown”, the “POLQ PD Prolif Lumin” value is 6.9.
In the case of `CC1(Oc2ncnc3c2nc(-c2ccc(CC(N)=O)cc2Cl)n3Cc2noc(C(C)(C)C)n2)CC1` [Example T71, 2-(4-(9-((5-(tert-butyl)-1,2,4-oxadiazol-3-yl)methyl)-6-(1-methylcyclopropoxy)-9H-purin-8-yl)-3-chlorophenyl)acetamide], under setting [3], the IC50 is 7940 nM.
Regarding `CC(CCOc1ccc(-c2nc3c(OC4(C)CC4)ncnc3n2Cc2ccccc2C2CC2)c(Cl)c1)C(=O)O` (single isomer, unassigned) [Example T600, 4-(3-chloro-4-(9-(2-cyclopropylbenzyl)-6-(1-methylcyclopropoxy)-9H-purin-8-yl)phenoxy)-2-methylbutanoic acid], the “POLQ PD Prolif Lumin” value (DLD-1 BRCA2-/-) came to 6.3.
As to `Cc1ccnc(Cn2c(-c3ccc(N4CCC5(CCN5)CC4)cc3Cl)nc3c(OC4(C)CC4)ncnc32)c1` [Example T586, 8-(2-chloro-4-(1,7-diazaspiro[3.5]nonan-7-yl)phenyl)-6-(1-methylcyclopropoxy)-9-((4-methylpyridin-2-yl)methyl)-9H-purine], the IC50 (DLD-1, first proliferation column, DLD-1 BRCA2-/-, read-out: POLQ PD Prolif Lumin (converted)) was 1580 nM.
For the compound `CC1(Oc2ncnc3c2nc(-c2ccc(OC[C@H]4C[C@H](C(=O)O)C4)cc2Cl)n3Cc2ccccc2C#N)CC1` [Example U27, (1r,3r)-3-((3-chloro-4-(9-(2-cyanobenzyl)-6-(1-methylcyclopropoxy)-9H-purin-8-yl)phenoxy)methyl)cyclobutane-1-carboxylic acid], the “POLQ PD Prolif Lumin BRCA2 −/− mean pIC50” value (DLD-1 BRCA2 −/−, mean) is given as 6.7.
In the case of `CC(CCCc1ccc(-c2nc3c(OC4(C)CC4)ncnc3n2Cc2ccccc2C#N)c(Cl)c1)C(=O)O` (racemic) [Example U12, 5-(3-chloro-4-(9-(2-cyanobenzyl)-6-(1-methylcyclopropoxy)-9H-purin-8-yl)phenyl)-2-methylpentanoic acid], the IC50 under setting [4] is 398 nM.
For the compound `Cc1ccnc(Cn2c(-c3ccc(OCC(=O)N(C)C)cc3Cl)nc3c(OC4(C)CC4)ncnc32)c1` [Example T216, 2-(3-chloro-4-(6-(1-methylcyclopropoxy)-9-((4-methylpyridin-2-yl)methyl)-9H-purin-8-yl)phenoxy)-N,N-dimethylacetamide], under setting [6], the IC50 is 316 nM.
`CNC(=O)COc1ccc(Cl)c(-c2nc3c(OC4(C)CC4)ncnc3n2Cc2cc(C)ccn2)c1` [Example T122, 2-(4-chloro-3-(6-(1-methylcyclopropoxy)-9-((4-methylpyridin-2-yl)methyl)-9H-purin-8-yl)phenoxy)-N-methylacetamide]: the IC50 under setting [5] is 6310 nM.
Turning to `Cc1ccnc(Cn2c(-c3ccc(N4CCNC(=O)CC4)cc3Cl)nc3c(OC4(C)CC4)ncnc32)c1` [Example T339, 1-(3-chloro-4-(6-(1-methylcyclopropoxy)-9-((4-methylpyridin-2-yl)methyl)-9H-purin-8-yl)phenyl)-1,4-diazepan-5-one], under setting [2], the IC50 is 501 nM.
Same read-out and setting: with `Cc1ccnc(Cn2c(-c3ccc(OCC(=O)NCCCO)cc3Cl)nc3c(OC4(C)CC4)ncnc32)c1` [Example T373, 2-(3-chloro-4-(6-(1-methylcyclopropoxy)-9-((4-methylpyridin-2-yl)methyl)-9H-purin-8-yl)phenoxy)-N-(3-hydroxypropyl)acetamide] the figure was 316 nM.
On to `CC(CCc1ccc(-c2nc3c(OC4(C)CC4)ncnc3n2Cc2cccc(Cl)c2)c(Cl)c1)C(=O)O` (racemic) [Example T290, 4-(3-chloro-4-(9-(3-chlorobenzyl)-6-(1-methylcyclopropoxy)-9H-purin-8-yl)phenyl)-2-methylbutanoic acid], for which the IC50 under setting [6] is 251 nM.
As for `Cc1ccnc(Cn2c(-c3ccc(OC4CCc5nccn5C4)cc3Cl)nc3c(OC4(C)CC4)ncnc32)c1` (single isomer, unassigned) [Example T536, 8-(2-chloro-4-((5,6,7,8-tetrahydroimidazo[1,2-a]pyridin-6-yl)oxy)phenyl)-6-(1-methylcyclopropoxy)-9-((4-methylpyridin-2-yl)methyl)-9H-purine], the IC50 under setting [5] is 501 nM.
Consider `Cc1nnccc1Cn1c(-c2ccc(CC(N)=O)cc2Cl)nc2c(OC3(C)CC3)ncnc21` [Example T17, 2-(3-chloro-4-(6-(1-methylcyclopropoxy)-9-((3-methylpyridazin-4-yl)methyl)-9H-purin-8-yl)phenyl)acetamide], for which the IC50 under setting [3] was over 10000 nM.
`Cc1ccnc(Cn2c(-c3ccc(OCC(=O)N4CCOCC4)cc3Cl)nc3c(OC4(C)CC4)ncnc32)c1` [Example T475, 2-(3-chloro-4-(6-(1-methylcyclopropoxy)-9-((4-methylpyridin-2-yl)methyl)-9H-purin-8-yl)phenoxy)-1-morpholinoethan-1-one]: the IC50 under setting [1] was 251 nM.
`Cc1ccnc(Cn2c(-c3ccc(OCCN4CCNC(=O)C4)cc3Cl)nc3c(OC4(C)CC4)ncnc32)c1` [Example T499, 4-(2-(3-chloro-4-(6-(1-methylcyclopropoxy)-9-((4-methylpyridin-2-yl)methyl)-9H-purin-8-yl)phenoxy)ethyl)piperazin-2-one]: the IC50 under setting [5] is 316 nM.
In the case of `CC(CCOc1ccc(-c2nc3c(OC4(C)CC4)ncnc3n2Cc2cc(C(F)(F)F)cc(Cl)c2F)c(Cl)c1)C(=O)O` (racemic) [Example U35, 4-(3-chloro-4-(9-(3-chloro-2-fluoro-5-(trifluoromethyl)benzyl)-6-(1-methylcyclopropoxy)-9H-purin-8-yl)phenoxy)-2-methylbutanoic acid], the IC50 under setting [4] is 158 nM.
